How the values were obtained:
[1] = tested on: CHO-PDL1/Jurkat-PD1 cell pathway; assay: Inhibition of CHO-PDL1/Jurkat-PD1 cell pathway (NFAT luciferase reporter); type: cell-based; conditions: for EC50: 6 hours incubation, luciferase signal; for maximal fold induction: relative to the signal value of the non-dosed group, read-out: Maximum induction fold
Experimental: Test Embodiment 3. Inhibitory Effect of the Compounds of the Present Disclosure on CHO-PDL1/Jurkat-PD1 Cell Pathway
Experimental purpose: The purpose of this test embodiment was to test the inhibitory effect of compounds on the CHO-PDL1/Jurkat-PD1 cell pathway.
Experimental method: Two stably transfected cell lines were included in this experiment, CHO-K1 cells stably transfected with PD-L1 and Jurkat cells stably transfected with PD-1 and NFAT luciferase reporter genes. Compounds were incubated with the two cell lines. Then, due to the inhibitory effect on the PD-1/PD-L1 pathway, the activation degree of Jurkat cells changed, so that the level of the reporter gene NFAT in the downstream of Jurkat cells changed, and the level of NFAT was characterized by detecting the signal value of luciferase, so that the inhibitory effect of the test compound on CHO-PDL1/Jurkat-PD1 pathway was characterized.
CHO-PDL1 cells (Promega, #J1252) were cultured to a suitable cell density. After digestion, the cells were resuspended by complete medium to become a suitable density of cell suspension. The cell suspension was plated 100 μL per well on a 96-well plate (Corning, #3610), and placed in a 37° C., 5% CO2 incubator and incubated overnight, and assay medium (RPMI 1640+2% FBS, RPMI 1640 Cat. No.: Gibco, #22400089, FBS Cat. No.: Gibco, #10091148) was used to prepare compound solutions of different concentrations. NFAT-luc2/PD1 Jurkat cells (Promega, #J1252) were collected and resuspended to the appropriate cell density using assay medium. The supernatant of the CHO-PDL1 cell culture plate was aspirated, and 40 μL of the prepared compound solution and 40 μL of resuspended NFAT-luc2/PD1 Jurkat cells were added, and incubated in a 5% CO2 incubator at 37° C. for 6 hours, and the cell plate was taken out, then 40 μL of One-Glo reagent (Promega, #E6120) was added to each well, shaked and mixed well, incubated in the dark at room temperature for 10 minutes, then put into a microplate reader and the luminescence program was used to read the luminescence value of the cell plate.
The EC50 value was fitted according to the compound concentration and the luminescence signal value, and the maximum induction fold of each compound relative to the signal value of the non-dosed group was calculated, as shown in Table 3.

[2] = molecular target: T1, PD-L1 protein on the surface of MC38-hPDL1 tumor cells (Homo sapiens, UniProt Q9NZQ7); assay: Induction of endocytosis of PD-L1 on the surface of tumor cells (flow cytometry); type: cell-based; conditions: 16 hours incubation; for Emax: MC38-hPDL1 cells, read-out: MC38 maximum endocytosis rate; for IC50: inducing endocytosis of PD-L1, MC38-hPDL1 cells, read-out: MC38 IC50
T1 construct: expressed in transfected cells; host or cells: MC38-hPDL1 (mouse colon cancer cells)
In short: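 IC50 comes from nonlinear fits of endocytosis rate, calculated from the loss of surface PE-anti-CD274 flow signal relative to vehicle. Cells were MC38 mouse colon cancer cells engineered to express high human PD-L1. Compound exposure lasted 16 h at 37 °C, 5% CO2.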

[3] = molecular target: T2, human PD-1/PD-L1 binding (Homo sapiens, UniProt Q9NZQ7); assay: Inhibition of human PD-1/PD-L1 binding (TR-FRET/HTRF); conditions: TR-FRET, PD-L1-His and PD-1-Fc; read-out: PD-1/PD-L1 binding IC50
T2 construct: PD-L1-His protein (19 to 238 amino acids) (Abcam #ab167713); purchased Abcam (PD-L1-His); R&D (PD-1-Fc) ab167713; 1086-PD
In short: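 PD-L1-His (aa 19–238, diluted to 10 nM) and PD-1-Fc (aa 25–167, diluted to 20 nM) incubated with compounds (10 μM or 1 μM top, 3-fold, 11 doses) 60 min at room temperature, then anti-6HIS Eu cryptate/anti-human IgG-XL665 added for 3 h RT or overnight 4 °C. HTRF 665/620 nm ratio gave inhibition and IC50.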

[4] = Pharmacokinetics test in Balb/C mice; type: in vivo; conditions: male, mouse, po, p.o. 5 mg/kg, plasma
Experimental: Test Embodiment 6. Pharmacokinetics Test in Balb/C Mice
Taking Balb/C mice as the test animals, the pharmacokinetic behavior in the plasma of mice of the following compound embodiments was studied when orally administered at a dose of 5 mg/kg.
Balb/C Mouse 6/embodiment, male, Shanghai Jisijie Laboratory Animal Co., Ltd., animal production license number (SCXK (Shanghai) 2013-0006 No. 311620400001794).
0.5% HPMC (1% Tween 80), dissolved by sonication, to prepare a clear solution or a homogeneous suspension.
Balb/C mice, male; p.o. after overnight fasting, respectively, at a dose of 5 mg/kg, administered in a volume of 10 mL/kg.
Before and after administration of mice, at 0, 0.5, 1, 2, 4, 6, 8 and 24 hours, 0.1 mL of blood was collected from the orbit, placed in an EDTA-K2 test tube, and centrifuged at 6000 rpm at 4° C. for 6 min to separate the plasma, stored at −80° C.
1) 40 μL of plasma samples were added to 160 μL of acetonitrile for precipitation, mixed and centrifuged at 3500×g for 5 to 20 minutes.
2) 100 μL of the supernatant solution after treatment was taken for LC/MS/MS to analyze the concentration of the compounds to be tested.
2.6 Liquid Phase Analysis • Liquid phase condition: Shimadzu LC-20AD pump • MS conditions: AB Sciex API 4000 Mass Spectrometer • Chromatographic column: phenomenex Gemiu 5 μm C18 50×4.6 mm • Mobile phase: A solution was aqueous 0.1% formic acid solution, B solution was acetonitrile • Flow rate: 0.8 mL/min • Elution time: 0 to 4.0 minutes, the eluent was as follows:
The main parameters of pharmacokinetics were calculated with WinNonlin 8.2, and the results of the mice pharmacokinetic experiments were shown in the following table: […]

[5] = molecular target: T3, human PD-L1 protein (Homo sapiens, UniProt Q9NZQ7); assay: Thermal shift: melting temperature of PD-L1 protein; type: binding; conditions: compound 10 μM, PD-L1 protein 2 μM, Tm minus DMSO vehicle control; read-out: ΔTm (° C.)
T3 construct: purchased Acro Biosystems PD1-H5229
In short: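 Human PD-L1 at 2 μM final was tested in […], 150 mM NaCl with SYPRO Orange, heated 25→95 °C at 0.03 °C/s in a PCR melt-curve run. Tm was taken per treatment; ΔTm is the shift relative to DMSO vehicle.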

T1 sequence (Q9NZQ7 19-290): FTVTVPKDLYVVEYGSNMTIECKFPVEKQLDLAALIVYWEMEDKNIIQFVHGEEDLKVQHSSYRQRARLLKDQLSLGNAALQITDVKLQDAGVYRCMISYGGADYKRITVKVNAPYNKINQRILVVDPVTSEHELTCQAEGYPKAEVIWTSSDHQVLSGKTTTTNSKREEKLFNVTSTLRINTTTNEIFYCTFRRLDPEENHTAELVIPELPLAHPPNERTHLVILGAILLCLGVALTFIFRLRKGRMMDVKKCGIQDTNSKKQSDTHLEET
T2 sequence (Q9NZQ7 19-238): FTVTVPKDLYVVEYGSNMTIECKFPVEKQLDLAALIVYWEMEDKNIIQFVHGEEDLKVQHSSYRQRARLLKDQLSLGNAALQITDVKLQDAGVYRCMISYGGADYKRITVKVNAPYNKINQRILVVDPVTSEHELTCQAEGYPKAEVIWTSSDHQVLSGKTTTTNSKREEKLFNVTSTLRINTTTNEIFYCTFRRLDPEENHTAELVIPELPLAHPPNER
T3 sequence (Q9NZQ7 19-238 limits assumed): as the sequence (Q9NZQ7 19-238) above

Compound	Emax [2] [%]	IC50 [2] [nM]	IC50 [3] [nM]	MRT inf ([4]; read-out: Average residence time MRT0−∞) [h]	AUC(0-t) ([4]; read-out: Curve area AUC0−t) [ng·h/mL]	Cmax ([4]; read-out: Drug concentration in plasma Cmax) [ng/mL]	half-life ([4]; read-out: Half life t1/2 (converted)) [h]	Tmax ([4]; read-out: Peak time tmax) [h]	ΔTm at 10 µM [5] [°C]	EC50 [1] [nM]	maximal fold induction [1]
CCN1CCc2c(nc(C(=O)Nc3cccc(-c4cccc(NC(=O)c5cc(OC)c(CNc6ccnc(C)c6F)cn5)c4C)c3Cl)n2C)C1 [Embodiment 78, N-(2-Chloro-3′-(5-(((3-fluoro-2-methylpyridin-4-yl)amino)methyl)-4-methoxypicolinamido)-2′-methyl-[1,1′-biphenyl]-3-yl)-5-ethyl-1-methyl-4,5,6,7-tetrahydro-1H-imidazo[4,5-c]pyridine-2-carboxamide]										68	2.8
COc1nc(-c2cccc(-c3cccc(NC(=O)c4nc5c(n4C)CCN(C)C5)c3Cl)c2Cl)ccc1CN[C@@H]1CCCC[C@@H]1O [Embodiment 176, N-(2,2′-Dichloro-3′-(5-((((1R,2S)-2-hydroxycyclohexyl)amino)methyl)-6-methoxypyridin-2-yl)-[1,1′-biphenyl]-3-yl)-1,5-dimethyl-4,5,6,7-tetrahydro-1H-imidazo[4,5-c]pyridine-2-carboxamide]	97	1.2		21.6	629	55	15.2	2	24.3		
COc1cc(C(=O)Nc2cccc(-c3cccc(NC(=O)c4nc5c(n4C)CCN(C)C5)c3Cl)c2C)ncc1CNC1COC1 [Embodiment 36, N-(2-Chloro-3′-(4-methoxy-5-((oxetan-3-ylamino)methyl)picolinamido)-2′-methyl-[1,1′-biphenyl]-3-yl)-1,5-dimethyl-4,5,6,7-tetrahydro-1H-imidazo[4,5-c]pyridine-2-carboxamide]	94	3.1	5							93	3.1
COc1cc(C(=O)Nc2cccc(-c3cccc(NC(=O)c4nc5c(n4C)CCN(C)C5)c3Cl)c2C)ncc1CN1CC[C@H](F)C1 [Embodiment 26, (S)—N-(2-Chloro-3′-(5-((3-fluoropyrrolidin-1-yl)methyl)-4-methoxypicolinamido)-2′-methyl-[1,1′-biphenyl]-3-yl)-1,5-dimethyl-4,5,6,7-tetrahydro-1H-imidazo[4,5-c]pyridine-2-carboxamide]										90	3.9
COc1cc(-c2cccc(-c3cccc(NC(=O)c4nc5c(n4C)CCN(C)C5)c3Cl)c2Cl)ccc1CNC[C@@H](C)O [Embodiment 158, (R)—N-(2,2′-Dichloro-4″-(((2-hydroxypropyl)amino)methyl)-3″-methoxy-[1,1′:3′,1″-terphenyl]-3-yl)-1,5-dimethyl-4,5,6,7-tetrahydro-1H-imidazo[4,5-c]pyridine-2-carboxamide]	95	1.7	6.4						10.3		

More lines, main results first:

Emax [2] [%]	IC50 [2] [nM]	IC50 [3] [nM]	MRT inf ([4]; read-out: Average residence time MRT0−∞) [h]	AUC(0-t) ([4]; read-out: Curve area AUC0−t) [ng·h/mL]	Cmax ([4]; read-out: Drug concentration in plasma Cmax) [ng/mL]	half-life ([4]; read-out: Half life t1/2 (converted)) [h]	Tmax ([4]; read-out: Peak time tmax) [h]	ΔTm at 10 µM [5] [°C]	Compound	EC50 [1] [nM]	maximal fold induction [1]
97	0.6	1.5							COc1cc(C(=O)Nc2cccc(-c3cccc(NC(=O)c4nc5c(n4C)CCN(C)C5)c3Cl)c2C)ncc1CNCCO [Embodiment 37, N-(2-Chloro-3′-(5-(((2-hydroxyethyl)amino)methyl)-4-methoxypicolinamido)-2′-methyl-[1,1′-biphenyl]-3-yl)-1,5-dimethyl-4,5,6,7-tetrahydro-1H-imidazo[4,5-c]pyridine-2-carboxamide]	63	4.8
93	1.1								COc1cc(C(=O)Nc2cccc(-c3cccc(NC(=O)c4nc5c(n4C)CCN(C)C5)c3Cl)c2C)ncc1CNc1ccnc(C)c1F [Embodiment 6, N-(2-Chloro-3′-(5-(((3-fluoro-2-methylpyridin-4-yl)amino)methyl)-4-methoxypicolinamido)-2′-methyl-[1,1′-biphenyl]-3-yl)-1,5-dimethyl-4,5,6,7-tetrahydro-1H-imidazo[4,5-c]pyridine-2-carboxamide]	60	3.3
96	0.6	2.8							COc1cc(C(=O)Nc2cccc(-c3cccc(NC(=O)c4nc5c(n4C)CCN(C)C5)c3Cl)c2C)ncc1CNCC(C)O (stereo in doubt) [Embodiment 38, (S)—N-(2-Chloro-3′-(5-(((2-hydroxypropyl)amino)methyl)-4-methoxypicolinamido)-2′-methyl-[1,1′-biphenyl]-3-yl)-1,5-dimethyl-4,5,6,7-tetrahydro-1H-imidazo[4,5-c]pyridine-2-carboxamide]	46	3.7
97	1.4	2							COc1cc(C(=O)Nc2cccc(-c3cccc(NC(=O)c4nc5c(n4C)CCN(C)C5)c3Cl)c2C)ncc1CNCCNC(C)=O [Embodiment 40, N-(3′-(5-(((2-Acetylaminoethyl)amino)methyl)-4-methoxypicolinamido)-2-chloro-2′-methyl-[1,1′-biphenyl]-3-yl)-1,5-dimethyl-4,5,6,7-tetrahydro-1H-imidazo[4,5-c]pyridine-2-carboxamide]	75	4
88	6.5								COc1cc(NCc2cnc(C(=O)Nc3cccc(-c4cccc(NC(=O)c5nc6c(n5C)CCN(CCO)C6)c4Cl)c3C)cc2OC)ccn1 [Embodiment 72, N-(2-Chloro-3′-(4-methoxy-5-(((2-methoxypyridin-4-yl)amino)methyl)picolinamido)-2′-methyl-[1,1′-biphenyl]-3-yl)-5-(2-hydroxyethyl)-1-methyl-4,5,6,7-tetrahydro-1H-imidazo[4,5-c]pyridine-2-carboxamide]	73	3.1

Reference: patent US20230105212A1, “BIPHENYL DERIVATIVE INHIBITOR, PREPARATION METHOD THEREFOR AND USE THEREOF” (SHANGHAI HANSOH BIOMEDICAL CO., LTD., priority 2020, published 2023)
